Several values for one entry are separate records, joined by “and”; a condition that tells them apart may be missing. Equal values may be shown once. Toxic doses and inconclusive results are not listed. The calls were made as follows: active = survival T/C of 150% or more; inactive = T/C below 125% in these data. Bridge positions count the residues as written; N and C are the ends. Peptide text beside a SMILES is read from it. I, II: the chains in the order shown.
System: P388 leukemia ip, CD2F1 mice, survival T/C
Assay: NCI In Vivo Anticancer Drug Screen. Data for tumor model P388 Leukemia (intraperitoneal) in CD2F1 (CDF1) mice
Conditions: endpoint: median survival time, higher = longer survival
Procedure, shortened: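 Mice carrying the transplanted tumor received test compound or vehicle. Survival was recorded in each group, and the value is the treated-group measurement divided by that of the vehicle-treated control group.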

[1] = dose: 50.0 mg/kg/injection, schedule: Q01DX009 (ip), vehicle: Klucel (hydroxypropylcellulose) (HPC)
[2] = dose: 100.0 mg/kg/injection, schedule: Q01DX009 (ip), vehicle: Klucel (hydroxypropylcellulose) (HPC)
[3] = dose: 200.0 mg/kg/injection, schedule: Q01DX009 (ip), vehicle: Klucel (hydroxypropylcellulose) (HPC)
[4] = dose: 50.0 mg/kg/injection, schedule: Q01DX009 (ip), vehicle: saline
[5] = dose: 60.0 mg/kg/injection, schedule: Q01DX005 (ip), vehicle: saline with Tween-80
[6] = dose: 120.0 mg/kg/injection, schedule: Q01DX005 (ip), vehicle: saline with Tween-80
[7] = dose: 240.0 mg/kg/injection, schedule: Q01DX005 (ip), vehicle: saline with Tween-80
[8] = dose: 50.0 mg/kg/injection, schedule: Q01DX005 (ip), vehicle: saline with Tween-80
[9] = dose: 100.0 mg/kg/injection, schedule: Q01DX005 (ip), vehicle: saline with Tween-80
[10] = dose: 200.0 mg/kg/injection, schedule: Q01DX005 (ip), vehicle: saline with Tween-80
[11] = dose: 25.0 mg/kg/injection, schedule: Q01DX009 (ip), vehicle: saline with Tween-80
[12] = dose: 50.0 mg/kg/injection, schedule: Q01DX009 (ip), vehicle: saline with Tween-80
[13] = dose: 100.0 mg/kg/injection, schedule: Q01DX009 (ip), vehicle: saline with Tween-80
[14] = dose: 200.0 mg/kg/injection, schedule: Q01DX009 (ip), vehicle: saline with Tween-80
[15] = dose: 25.0 mg/kg/injection, schedule: Q01DX009 (ip), vehicle: Klucel (hydroxypropylcellulose) (HPC)
[16] = dose: 50.0 mg/kg/injection, schedule: Q01DX005 (ip), vehicle: Klucel (hydroxypropylcellulose) (HPC)
[17] = dose: 100.0 mg/kg/injection, schedule: Q01DX005 (ip), vehicle: Klucel (hydroxypropylcellulose) (HPC)
[18] = dose: 200.0 mg/kg/injection, schedule: Q01DX005 (ip), vehicle: Klucel (hydroxypropylcellulose) (HPC)
[19] = dose: 25.0 mg/kg/injection, schedule: Q01DX009 (ip), vehicle: saline
[20] = dose: 400.0 mg/kg/injection, schedule: Q01DX009 (ip), vehicle: Klucel (hydroxypropylcellulose) (HPC)
[21] = dose: 100.0 mg/kg/injection, schedule: Q01DX009 (ip), vehicle: saline
[22] = dose: 200.0 mg/kg/injection, schedule: Q01DX009 (ip), vehicle: saline

Measured: T/C

CC1CCC(c2ccoc2)N2C1CCC(C)(Sc1ccccc1)C2O (centres undefined)
inactive: dose: 5.5 mg/kg/injection, schedule: Q01DX004 (ip), vehicle: DMSO 95 % of control | dose: 11.0 mg/kg/injection, schedule: Q01DX004 (ip), vehicle: DMSO 115 % of control | dose: 22.0 mg/kg/injection, schedule: Q01DX004 (ip), vehicle: DMSO 113 % of control | dose: 25.0 mg/kg/injection, schedule: Q01DX001 (ip), vehicle: other 103 % of control | dose: 44.0 mg/kg/injection, schedule: Q01DX004 (ip), vehicle: DMSO 105 % of control | dose: 50.0 mg/kg/injection, schedule: Q01DX001 (ip), vehicle: other 98 % of control | dose: 100.0 mg/kg/injection, schedule: Q01DX001 (ip), vehicle: other 98 % of control

N#CC1C(=O)NC(=O)C(C#N)C1c1ccccc1 (centres undefined)
inactive: [1] 102 % of control | [2] 101 % of control | [3] 100 % of control

[Co].[N-]=C=S.[N-]=C=S.[N-]=C=S.[NH-]CC[N-]CC[NH-]
inactive: dose: 2.5 mg/kg/injection, schedule: Q01DX009 (ip), vehicle: saline 114 % of control | dose: 5.0 mg/kg/injection, schedule: Q01DX009 (ip), vehicle: saline 114 % of control | dose: 10.0 mg/kg/injection, schedule: Q01DX009 (ip), vehicle: saline 107 % of control | dose: 22.0 mg/kg/injection, schedule: Q01DX009 (ip), vehicle: saline 88 % of control | dose: 44.0 mg/kg/injection, schedule: Q01DX009 (ip), vehicle: saline 100 % of control | [4] 118 % of control

COc1cccc(CN2C(=O)NC(C)(C)C2O)c1 (centres undefined)
inactive: [5] 99 % of control | [6] 101 % of control | [7] 101 % of control

CC12OC(=O)C(C(N)=O)=C1C=C(c1ccccc1)CC2c1ccccc1 (centres undefined)
inactive: [5] 96 % of control | [6] 96 % of control | [7] 89 % of control

COC1=NO[C@@H]2C=CO[C@H]12
inactive: [8] 105 % of control | [9] 100 % of control | [10] 93 % of control

COc1ccc(CN2CC(C)N(N=Cc3c4c(O)c5c(O)c(C)c6c(c5c3O)C(=O)C(C)(O/C=C/C(OC)C(C)C(OC(C)=O)C(C)C(O)C(C)C(O)C(C)/C=C/C=C(\C)C(=O)N4)O6)C(C)C2)cc1 (centres undefined)
inactive: [11] 110 % of control | [12] 103 % of control and 116 % of control | dose: 50.0 mg/kg/injection, schedule: Q01DX009 (ip), vehicle: suspension in saline 112 % of control | [13] 113 % of control and 119 % of control | dose: 100.0 mg/kg/injection, schedule: Q01DX009 (ip), vehicle: suspension in saline 108 % of control | [14] 119 % of control | dose: 200.0 mg/kg/injection, schedule: Q01DX009 (ip), vehicle: suspension in saline 91 % of control

Cc1cc(C)c(S(=O)(=O)OCC2OC(OC3(COS(=O)(=O)c4c(C)cc(C)cc4C)OC(COS(=O)(=O)c4c(C)cc(C)cc4C)C(O)C3O)C(O)C(O)C2O)c(C)c1 (centres undefined)
inactive: [15] 107 % of control | [1] 99 % of control

Nc1ncc2[nH]cnc2n1
inactive: [16] 102 % of control | [17] 100 % of control | [18] 103 % of control

CCCCCCCCCCCCCCCCCC[N+](C)(C)c1nc(Cl)nc(Cl)n1
inactive: [19] 100 % of control | [4] 91 % of control

CC(=O)N(C)c1ccc(Nc2ccc(Nc3ccc(N(C)C(C)=O)cc3)c3c2C(=O)c2ccccc2C3=O)cc1
inactive: [8] 100 % of control | [9] 100 % of control | [10] 99 % of control

CC12N=C1CCCCCCCCCCCC2=O (centres undefined)
inactive: [5] 101 % of control | [6] 100 % of control | [7] 108 % of control

COC(=O)C1=NNC(C(=O)OC)=C(c2ccccc2)C(c2ccccc2)=N1
inactive: [15] 89 % of control | [1] 90 % of control | [2] 93 % of control | [3] 98 % of control | [20] 106 % of control

C=C1C(=O)OC2/C=C(\C)CC(OC(C)=O)/C=C(/CO)CC(OC(=O)/C(C)=C/C)C12 (centres undefined)
inactive: dose: 3.75 mg/kg/injection, schedule: Q01DX009 (ip), vehicle: saline + alcohol 90 % of control | dose: 7.5 mg/kg/injection, schedule: Q01DX009 (ip), vehicle: saline + alcohol 98 % of control | dose: 15.0 mg/kg/injection, schedule: Q01DX009 (ip), vehicle: saline + alcohol 93 % of control | dose: 30.0 mg/kg/injection, schedule: Q01DX009 (ip), vehicle: saline + alcohol 86 % of control

Cc1cc(Cl)cc(S(=O)(=O)O)c1N
inactive: dose: 100.0 mg/kg/injection, schedule: Q04DX003 (ip), vehicle: Klucel (hydroxypropylcellulose) (HPC) 95 % of control | dose: 200.0 mg/kg/injection, schedule: Q04DX003 (ip), vehicle: Klucel (hydroxypropylcellulose) (HPC) 97 % of control | dose: 400.0 mg/kg/injection, schedule: Q04DX003 (ip), vehicle: Klucel (hydroxypropylcellulose) (HPC) 97 % of control

O=C(O)/C=C/C(=O)Nc1ccc(Cl)c(Cl)c1
inactive: dose: 6.25 mg/kg/injection, schedule: Q01DX009 (ip), vehicle: Klucel (hydroxypropylcellulose) (HPC) 105 % of control | dose: 12.5 mg/kg/injection, schedule: Q01DX009 (ip), vehicle: Klucel (hydroxypropylcellulose) (HPC) 115 % of control | [15] 105 % of control | [20] 109 % of control

CCOC(=O)c1cnn(-c2ccccc2)c1N
inactive: dose: 12.5 mg/kg/injection, schedule: Q01DX009 (ip), vehicle: saline with Tween-80 99 % of control | dose: 12.5 mg/kg/injection, schedule: Q01DX009 (ip), vehicle: saline 99 % of control | [11] 109 % of control | [19] 102 % of control | [12] 101 % of control | [4] 99 % of control | [13] 96 % of control | [21] 103 % of control | [14] 96 % of control | [22] 94 % of control | dose: 400.0 mg/kg/injection, schedule: Q01DX009 (ip), vehicle: saline with Tween-80 99 % of control | dose: 400.0 mg/kg/injection, schedule: Q01DX009 (ip), vehicle: saline 105 % of control

CC(C)C(NC(=O)C(N)CSSCC(N)C(=O)NC(C(=O)O)C(C)C)C(=O)O (stereo not drawn) (I: H-Cys-Val-OH / II: H-Cys-Val-OH; disulfide I:1-II:1; configuration not given here)
inactive: [16] 103 % of control | [17] 103 % of control | [18] 101 % of control

O=S1(=O)CCN(Cc2cccnc2)CC1
inactive: [4] 94 % of control | [21] 98 % of control | [22] 91 % of control

O=C1C2CCC(C2)C1C(O)(C(F)(F)F)C(F)(F)F (centres undefined)
inactive: [11] 109 % of control | dose: 25.0 mg/kg/injection, schedule: Q04DX003 (ip), vehicle: saline with Tween-80 109 % of control | [12] 100 % of control | dose: 50.0 mg/kg/injection, schedule: Q04DX003 (ip), vehicle: saline with Tween-80 100 % of control | [13] 104 % of control | dose: 100.0 mg/kg/injection, schedule: Q04DX003 (ip), vehicle: saline with Tween-80 90 % of control

Cn1nnc(-c2nnnn2N)n1
inactive: [4] 95 % of control | [21] 94 % of control | [22] 94 % of control

O=N[O-].O=N[O-].[I][Pt][I]
inactive: dose: 12.5 mg/kg/injection, schedule: Q01DX005 (ip), vehicle: saline 116 % of control and 117 % of control | dose: 25.0 mg/kg/injection, schedule: Q01DX005 (ip), vehicle: saline 124 % of control | dose: 50.0 mg/kg/injection, schedule: Q01DX005 (ip), vehicle: saline 105 % of control | dose: 100.0 mg/kg/injection, schedule: Q01DX005 (ip), vehicle: saline 124 % of control

CNC(C)(C(=O)O)C(=O)Nc1ccccc1 (centres undefined)
inactive: dose: 100.0 mg/kg/injection, schedule: Q01DX001 (ip), vehicle: saline 112 % of control | dose: 200.0 mg/kg/injection, schedule: Q01DX001 (ip), vehicle: saline 123 % of control

— PubChem BioAssay AID330 (DTP/NCI, 2004)
